Measured values taken from ChEMBL document CHEMBL1129656, “A study of the active site of influenza virus sialidase: an approach to the rational design of novel anti-influenza drugs” (J Med Chem, 1996).

Experiment: Compound was tested for the inhibition of influenza virus sialidase using 2'-(4-methylumbelliferyl)-N-acetylneuraminic acid substrate
Set-up: species or system unidentified influenza virus

Row | SMILES | Ki [µM]
1 | CC(=O)NC1C(O)C=C(C(=O)O)OC1[C@H](O)[C@H](O)CO (stereo not given in full) | 4
2 | CC(=O)N[C@H]1[C@H]([C@H](O)[C@H](O)CO)OC(C(=O)O)=C[C@H]1N | 0.04
3 | CC(=O)N[C@@H]1C(NC(=N)N)C=C(C(=O)O)OC1[C@H](O)[C@H](O)CO (stereo not given in full) | 3e-05
4 | CC(=O)N[C@@H]1C(N)C=C(C(=O)O)O[C@H]1[C@H](O)[C@H](O)CO (single isomer, unassigned) | 0.3
5 | CC(=O)NC1C(O)CC(O)(C(=O)O)OC1[C@H](O)[C@H](O)CO (stereo not given in full) | 1000
